Values joined by “and” are separate entries in the source; they are usually repeats but may differ in a detail not shown here. Equal entries are not always repeated. Where two headings read alike, the source gives them in different places.
Key:
[1] = Genotype-stratified analysis: PPI association with endpoints by CYP2C19 predicted metaboliser status; assay type: in vivo, human; settings: adjusted
Protocol: (§1) Exploratory genotype‐stratified analyses were carried out to further assess key identified drug–drug interactions. Specifically, the adjusted association of PPIs with endpoints was determined following cohort stratification by CYP2C19 predicted metaboliser status, because PPIs are metabolised by CYP2C19.22, 23 CYP2C19 was stratified by *2 (rs4244285; directly genotyped) and *17 (rs12248560; imputed) diplotypes into: extensive (EM, *1/*1), intermediate (IM, *1/*2 or *2/*17), poor (PM, *2/*2), rapid (RM, *1/*17) and ultra‐rapid metabolisers (UM, *17/*17). Due to the small number of PM (n = 10) and UM (n = 24) patients, PMs were combined with IMs, and UMs with RMs, for analysis. […] Secondly, the impact of https://www.guidetopharmacology.org/GRAC/ObjectDisplayForward?objectId=792 rs2231142 (Q141K; imputed) on the adjusted associations of loop diuretics with the endpoints was considered.
(§2) The sensitivity and genotype‐stratified analyses were only conducted on those endpoints where the perpetrator comedication of interest had been included in the endpoint's main analysis model, and P < .05 was taken to indicate significance. All statistical testing was carried out in the R computing environment,26 except for the secondary stepwise analysis that was undertaken in IBM SPSS version 22.0 (IBM Corp, Armonk, NY, USA); boxplots were produced in GraphPad Prism (version 5.00 for Windows: GraphPad Software Inc., San Diego, USA).

[2] = Plasma concentrations of ATV and metabolites by HPLC-MS/MS in NSTE-ACS patients at V2 (1 month); assay type: in vivo, human; settings: for concentration at […] / concentration at 1 month: human, plasma, oral; for concentration at […]: plasma at V2, median […] since last ATV (estimated), read-out: Conc (ng/mL), median (IQR); for concentration at 1 month: median ATV concentration, unadjusted
Description: This investigation harnessed the Pharmacogenetics of Acute Coronary Syndrome (PhACS) study, described previously.13 Briefly, PhACS was a UK multicentre prospective observational study that recruited 1470 eligible patients hospitalised with an NSTE‐ACS between 2008–2012 and followed them up at 1 (V2) and 12 (V3) months. Demographic, comorbidity and prescription information was collected at baseline; drug use, drug adherence, and new clinical events were captured during follow up. PhACS participants were genotyped using the Illumina HumanOmniExpressExome‐8 v1.0 BeadChip at Edinburgh Genomics (Roslin Institute, Scotland).
Briefly, 50‐μL plasma samples were first mixed with 20 μL of a composite internal standard solution containing a deuterated internal standard for each analyte, and then diluted further by addition of 180 μL 100% acetonitrile containing 0.3% acetic acid. Following centrifugation, the supernatant was diluted 1:2 in water and a 5‐μL aliquot injected for analysis. Analytes were separated using a 2.7‐μm Halo C18 column (50 × 2.1 mm ID, 90 Å, Hichrom Limited, Reading, UK, part number: 92812–402) with gradient elution, housed within a Shimadzu Nexera X2 modular system (Kyoto, Japan). Analytes were detected in low mass positive ionisation mode using multiple reaction monitoring (Sciex triple quadrupole 6500 QTRAP mass spectrometer with a Turbo electrospray source, AB Sciex, Warrington, UK). […] Calibration and quality control (QC) samples were prepared in pooled healthy human volunteer K3 EDTA plasma (Sera Laboratories International, West Sussex, UK).

[3] = Main analysis: all subsets multivariable linear regression with BIC model averaging of clinical factors/comedications on ATV analyte levels, ratios and sum total; assay type: in vivo, human; settings: log10 transformed plasma concentration, model averaged coefficient
Description: All variables were considered in model selection (see below) except hypertension, hyperlipidaemia, and prior CVD.
Prior to modelling, all endpoints were log10 transformed to normalise the distribution of (observed) residuals and optimise homoscedasticity.
Third, the derived models were ranked according to the Bayesian information criterion (BIC), which is more conservative than the corrected Akaike information criterion because BIC carries a larger penalty for increasing model complexity.19 Fourth, all models with a BIC within 2 of the model with the lowest BIC (BIC Δ < 2) underwent model averaging to produce model averaged (unstandardised) coefficients and standard errors for all the covariates included in this set of models, to enable multimodel inferences. The model selection constraint of Δ < 2 was chosen because the empirical evidence supporting each of these models is considered essentially equivalent.19 Conditional averaging was used, and so for a given covariate, its coefficient and standard error were averaged from only those models with BIC Δ < 2 that contained the covariate.20 This approach was taken because of the interest in assessing the relationship between individual covariates and the endpoints, with overall model predictive capability of secondary importance.21 The relative importance of each of the selected covariates to the endpoint was assessed by summing the BIC‐derived model weight for all models that underwent model averaging and contained the covariate. The P‐value for each covariate in the final model is provided for reference only. The utility of the final produced model for describing the observed variation in the endpoint was assessed using the unadjusted R^2 value. This process was undertaken for all endpoints. The above described covariate selection and model averaging was carried out using the R statistical package, MuMIn. 20

[4] = Genotype-stratified analysis: loop diuretic association with endpoints by ABCG2 rs2231142 (Q141K); assay type: in vivo, human; settings: adjusted
Protocol: as §1, §2

[5] = test system: 3‐hydroxy‐3‐methyl‐glutaryl‐coenzyme A reductase (HMGCR); settings: background statement in introduction; cited from earlier work
[6] = cited from earlier work
[7] = test system: breast cancer resistance protein (BCRP, encoded by ABCG2); settings: cited from earlier work
[8] = CYP2C19 EM (n = 233), on PPI n = 88
[9] = CYP2C19 PM/IM (n = 152), on PPI n = 58
[10] = CYP2C19 RM/UM (n = 186), on PPI n = 83
[11] = ABCG2 rs2231142 WT (n = 435), on LD n = 74
[12] = ABCG2 rs2231142 variant carrier (n = 136), on LD n = 22

| B (SE), Proton pump inhibitor on analyte level [1, 8] | B (SE), Proton pump inhibitor on analyte level [1, 9] | B (SE), Proton pump inhibitor on analyte level [1, 10] | concentration at […] ([2]; 40 mg daily, 40 mg ATV daily) [ng/mL] | concentration at […] ([2]; 80 mg daily, 80 mg ATV daily) [ng/mL] | B (SE), ATV dose on analyte level [3] | B (SE), Age on analyte level [3] | B (SE), Body mass index on analyte level [3] | B (SE), Loop diuretic on analyte level [3] | B (SE), Proton pump inhibitor on analyte level [3] | B (SE), Sample storage duration on analyte level [3] | B (SE), Time since last ATV on analyte level [3] | B (SE), Loop diuretic on analyte level [4, 11] | B (SE), Loop diuretic on analyte level [4, 12] | Structure (SMILES) | activity against HMGCR [5] | other results |
| --- | --- | --- | --- | --- | --- | --- | --- | --- | --- | --- | --- | --- | --- | --- | --- | --- |
| 0.065 (0.039) | 0.018 (0.057) | 0.199 (0.042) | 4.24 | 7 | 0.215 (0.051) | 0.006 (0.001) | −0.006 (0.002) | 0.084 (0.035) | 0.106 (0.026) | 0.0001 (0.00003) | −0.0006 (0.0001) | 0.102 (0.040) | 0.044 (0.075) | CC(C)c1c(C(=O)Nc2ccccc2O)c(-c2ccccc2)c(-c2ccc(F)cc2)n1CCC1CC(O)CC(=O)O1 (centres unmarked) [2‐OH ATV L] | inactive | B (SE), Hepatic disease on analyte level [3]: −0.289 (0.134) |
| 0.045 (0.038) | 0.032 (0.050) | – | 5.35 | 6.93 | 0.212 (0.048) | 0.007 (0.001) | −0.006 (0.002) | 0.074 (0.033) | 0.062 (0.024) | −0.0001 (0.00003) | −0.0007 (0.0001) | 0.072 (0.039) | −0.051 (0.077) | CC(C)c1c(C(=O)Nc2ccccc2O)c(-c2ccccc2)c(-c2ccc(F)cc2)n1CC[C@@H](O)C[C@@H](O)CC(=O)O [2‐OH ATV] | – | B (SE), Smoking on analyte level ([3]; current vs previous/never): −0.076 (0.028); B (SE), Chronic kidney disease on analyte level [3]: 0.111 (0.051); B (SE), Diabetes mellitus on analyte level [3]: 0.079 (0.031) |
| – | – | – | – | – | – | – | – | – | – | – | – | – | – | CC(C)c1c(C(=O)Nc2ccc(O)cc2)c(-c2ccccc2)c(-c2ccc(F)cc2)n1CCC1CC(O)CC(=O)O1 (centres unmarked) [4‐OH ATV L] | inactive | – |
| – | – | – | – | – | – | – | – | – | – | – | – | – | – | CC(C)c1c(C(=O)Nc2ccc(O)cc2)c(-c2ccccc2)c(-c2ccc(F)cc2)n1CC[C@@H](O)C[C@@H](O)CC(=O)O [4‐OH ATV] | inhibit | – |
| 0.076 (0.050) | 0.084 (0.070) | 0.232 (0.053) | 2.51 | 3.97 | 0.222 (0.064) | – | −0.006 (0.003) | 0.121 (0.043) | 0.139 (0.033) | 0.0002 (0.00004) | −0.0007 (0.0001) | 0.149 (0.048) | 0.077 (0.089) | CC(C)c1c(C(=O)Nc2ccccc2)c(-c2ccccc2)c(-c2ccc(F)cc2)n1CCC1CC(O)CC(=O)O1 (centres unmarked) [ATV L] | – | B (SE), Amiodarone on analyte level [3]: 0.320 (0.142); B (SE), Sex (F vs M) on analyte level [3]: −0.097 (0.038) |
| 0.052 (0.045) | 0.046 (0.061) | 0.162 (0.050) | 3.96 | 5.22 | 0.153 (0.058) | 0.004 (0.001) | – | 0.099 (0.040) | 0.093 (0.030) | – | −0.001 (0.0001) | 0.121 (0.044) | 0.041 (0.086) | CC(C)c1c(C(=O)Nc2ccccc2)c(-c2ccccc2)c(-c2ccc(F)cc2)n1CC[C@@H](O)C[C@@H](O)CC(=O)O [ATV, atorvastatin, reference compound] | inhibit | concentration at 1 month ([2]; patients not on a PPI): 4.9 ng/mL; concentration at 1 month ([2]; patients not on a loop diuretic): 4.9 ng/mL; concentration at 1 month ([2]; patients on a PPI): 5.6 ng/mL; concentration at 1 month ([2]; patients on a loop diuretic): 6.8 ng/mL; increase in median ATV concentration ([2]; with PPIs vs without): 14% and ~ 14%; increase in median ATV concentration ([2]; with loop diuretics vs without): 38% and ~ 38%; B (SE), Amiodarone on analyte level [3]: 0.282 (0.129); fraction of an ATV dose excreted through the kidneys [6]: < 2% |
| – | – | – | – | – | – | – | – | – | – | – | – | – | – | CCCCNc1cc(C(=O)O)cc(S(N)(=O)=O)c1Oc1ccccc1 [bumetanide] | – | inhibition of BCRP in vitro [7]: inhibit |

Reference: PMC6983514 (British Journal of Clinical Pharmacology, 2020)
